According to patent US20180327396A1, “NOVEL PYRIDINE DERIVATIVES” (Hoffmann-La Roche Inc., priority 2014, published 2018):

molecular target: T1, human CB2 receptors (Homo sapiens, UniProt P34972); test: cAMP assay; assay type: cell-based; conditions: not given
T1 construct: expressed in transfected cells; host or cells: CHO cells
Protocol: CHO cells expressing human CB1 or CB2 receptors are seeded 17-24 hours prior to the experiment 50.000 cells per well in a black 96 well plate with flat clear bottom (Corning Costar #3904) in DMEM (Invitrogen No. 31331), 1× HT supplement, with 10% fetal calf serum and incubated at 5% CO2 and 37° C. in a humidified incubator. The growth medium was exchanged with Krebs Ringer Bicarbonate buffer with 1 mM IBMX and incubated at 30° C. for 30 min. Compounds were added to a final assay volume of 100 μl and incubated for 30 min at 30° C. Using the cAMP-Nano-TRF detection kit the assay (Roche Diagnostics) was stopped by the addition of 50 μl lysis reagent (Tris, NaCl, 1.5% Triton X100, 2.5% NP40, 10% NaN3) and 50 μl detection solutions (20 μM mAb Alexa700-cAMP 1:1, and 48 μM Ruthenium-2-AHA-cAMP) and shaken for 2 h at room temperature. The time-resolved energy transfer is measured by a TRF reader (Evotec Technologies GmbH), equipped with a ND:YAG laser as excitation source. The plate is measured twice with the excitation at 355 nm and at the emission with a delay of 100 ns and a gate of 100 ns, total exposure time 10 s at 730 (bandwidth 30 nm) or 645 nm (bandwidth 75 nm), respectively. The FRET signal is calculated as follows: FRET=T730−Alexa730−P(T645−B645) with P=Ru730−B730/Ru645−B645, where T730 is the test well measured at […], T645 is the test well measured at 645 nm, B730 and B645 are the buffer controls at 730 nm and 645 nm, respectively. cAMP content is determined from the function of a standard curve spanning from 10 μM to 0.13 nM cAMP.
EC50 values were determined using Activity Base analysis (ID Business Solution, Limited). The EC50 values for a wide range of cannabinoid agonists generated from this assay for reference compounds were in agreement with the values published in the scientific literature.

T1 sequence (P34972 whole entry): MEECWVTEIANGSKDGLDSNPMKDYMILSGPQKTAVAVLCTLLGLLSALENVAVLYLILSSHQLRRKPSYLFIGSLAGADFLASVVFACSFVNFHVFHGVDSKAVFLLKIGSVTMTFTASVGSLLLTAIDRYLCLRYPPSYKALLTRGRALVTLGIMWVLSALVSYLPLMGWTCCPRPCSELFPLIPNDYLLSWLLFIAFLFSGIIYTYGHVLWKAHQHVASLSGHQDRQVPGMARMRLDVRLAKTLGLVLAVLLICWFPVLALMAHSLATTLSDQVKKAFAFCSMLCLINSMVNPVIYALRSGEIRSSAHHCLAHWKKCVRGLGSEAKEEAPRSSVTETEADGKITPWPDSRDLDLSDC

| SMILES | EC50 [nM] |
| --- | --- |
| CC(C)(Cc1nnc(C2CC2)o1)NC(=O)c1cccc(-c2ccc(Cl)cc2)n1 [Example 1, 6-(4-Chlorophenyl)-N-[1-(5-cyclopropyl-1,3,4-oxadiazol-2-yl)-2-methylpropan-2-yl]pyridine-2-carboxamide] | 497 |
| CC(C)(Cc1nnc(-c2ccccc2)o1)NC(=O)c1cccc(OCC(F)(F)F)n1 [Example 3, N-[2-Methyl-1-(5-phenyl-1,3,4-oxadiazol-2-yl)propan-2-yl]-6-(2,2,2-trifluoroethoxy)pyridine-2-carboxamide] | 132 |
| CC(C)(Cc1nc(-c2ccccc2)no1)NC(=O)c1cccc(-c2ccc(Cl)cc2)n1 [Example 4, 6-(4-Chlorophenyl)-N-[2-methyl-1-(3-phenyl-1,2,4-oxadiazol-5-yl)propan-2-yl]pyridine-2-carboxamide] | 339 |
| CC(C)(Cc1nnc(-c2ccccc2)o1)NC(=O)c1cccc(-c2cccc(Cl)c2)n1 [Example 6, 6-(3-Chlorophenyl)-N-[2-methyl-1-(5-phenyl-1,3,4-oxadiazol-2-yl)propan-2-yl]pyridine-2-carboxamide] | 182 |
| CC(C)(Cc1nc(C2CC2)no1)NC(=O)c1cccc(-c2cccc(Cl)c2)n1 [Example 7, 6-(3-Chlorophenyl)-N-[1-(3-cyclopropyl-1,2,4-oxadiazol-5-yl)-2-methylpropan-2-yl]pyridine-2-carboxamide] | 244 |
| CC(C)(Cc1nnc(-c2ccccc2)o1)NC(=O)c1ccc(Nc2ccc(Cl)cc2Cl)c(Cl)n1 [Example 9, 6-Chloro-5-(2,4-dichloroanilino)-N-[2-methyl-1-(5-phenyl-1,3,4-oxadiazol-2-yl)propan-2-yl]pyridine-2-carboxamide] | 36.7 |
| CC(C)(Cc1nnc(-c2ccccc2)o1)NC(=O)c1ccc(C2CC2)c(-c2ccc(Cl)cc2)n1 [Example 10, 6-(4-Chlorophenyl)-5-cyclopropyl-N-[2-methyl-1-(5-phenyl-1,3,4-oxadiazol-2-yl)propan-2-yl]pyridine-2-carboxamide] | 265 |
| COCCOc1cccc(C(=O)NC(C)(C)Cc2nc(-c3ccccc3)no2)n1 [Example 11, 6-(2-Methoxyethoxy)-N-[2-methyl-1-(3-phenyl-1,2,4-oxadiazol-5-yl)propan-2-yl]pyridine-2-carboxamide] | 573 |
| CC(C)(Cc1nnc(C2CCC2)o1)NC(=O)c1cccc(-c2cccc(Cl)c2)n1 [Example 13, 6-(3-Chlorophenyl)-N-[1-(5-cyclobutyl-1,3,4-oxadiazol-2-yl)-2-methylpropan-2-yl]pyridine-2-carboxamide] | 294 |
| CC(C)(NC(=O)c1cccc(-c2ccc(Cl)cc2Cl)n1)c1nnc(-c2ccccc2)o1 [Example 14, 6-(2,4-Dichlorophenyl)-N-[2-(5-phenyl-1,3,4-oxadiazol-2-yl)propan-2-yl]pyridine-2-carboxamide] | 227 |
| Cc1nnc(C(C)(C)NC(=O)c2cccc(-c3ccc(Cl)cc3Cl)n2)o1 [Example 15, 6-(2,4-Dichlorophenyl)-N-[2-(5-methyl-1,3,4-oxadiazol-2-yl)propan-2-yl]pyridine-2-carboxamide] | 107 |
| COCCOCC(C)(C)c1cc(NC(=O)c2ccc(N3CC(F)(F)C3)c(OCC3CC3)n2)on1 [Example 16, 6-(Cyclopropylmethoxy)-5-(3,3-difluoroazetidin-1-yl)-N-[3-[1-(2-methoxyethoxy)-2-methylpropan-2-yl]-1,2-oxazol-5-yl]pyridine-2-carboxamide] | 218 |
| CC(C)(CO)n1cc(NC(=O)c2ccc(C3CC3)c(OCC3CC3)n2)cn1 [Example 17, 5-Cyclopropyl-6-(cyclopropylmethoxy)-N-[1-(1-hydroxy-2-methylpropan-2-yl)pyrazol-4-yl]pyridine-2-carboxamide] | 224 |
| COCCOCC(C)(C)c1cc(NC(=O)c2ccc(C3CC3)c(OCC3CC3)n2)on1 [Example 18, 5-Cyclopropyl-6-(cyclopropylmethoxy)-N-[3-[1-(2-methoxyethoxy)-2-methylpropan-2-yl]-1,2-oxazol-5-yl]pyridine-2-carboxamide] | 35.2 |
| CC(C)(CO)c1cc(NC(=O)c2ccc(C3CC3)c(OCC3CC3)n2)on1 [Example 19, 5-Cyclopropyl-6-(cyclopropylmethoxy)-N-[3-(1-hydroxy-2-methylpropan-2-yl)-1,2-oxazol-5-yl]pyridine-2-carboxamide] | 139 |
| CCOCCOCC(C)(C)c1cc(NC(=O)c2ccc(C3CC3)c(OCC3CC3)n2)on1 [Example 20, 5-Cyclopropyl-6-(cyclopropylmethoxy)-N-[3-[1-(2-ethoxyethoxy)-2-methylpropan-2-yl]-1,2-oxazol-5-yl]pyridine-2-carboxamide] | 22.5 |
| O=C(NC12CC3CC(CC(O)(C3)C1)C2)c1ccc(N2CC(F)(F)C2)c(OCC2CC2)n1 [Example 21, 6-(Cyclopropylmethoxy)-5-(3,3-difluoroazetidin-1-yl)-N-(3-hydroxy-1-adamantyl)pyridine-2-carboxamide] | 81.6 |
| CC(C)(C)OC(=O)N1CCOC(CNC(=O)c2ccc(C3CC3)c(Cc3ccc(F)cc3)n2)C1 (stereo not drawn) [Example 22, tert-Butyl 2-[[[5-cyclopropyl-6-[(4-fluorophenyl)methyl]pyridine-2-carbonyl]amino]methyl]morpholine-4-carboxylate] | 101 |
| NC(=O)[C@H]1CSCCN1C(=O)c1cnc(C2CC2)c(OCC2CC2)n1 [Example 23, (+)-4-[5-Cyclopropyl-6-(cyclopropylmethoxy)pyrazine-2-carbonyl]thiomorpholine-3-carboxamide] | 589 |
| CC(C)(COC1CCCCO1)c1cc(NC(=O)c2cnc(C3CC3)c(OCC3CC3)n2)on1 (stereo not drawn) [Example 24, 5-Cyclopropyl-6-(cyclopropylmethoxy)-N-[3-[2-methyl-1-(oxan-2-yloxy)propan-2-yl]-1,2-oxazol-5-yl]pyrazine-2-carboxamide] | 75.2 |
| CC(C)(CO)c1cc(NC(=O)c2cnc(C3CC3)c(OCC3CC3)n2)on1 [Example 25, 5-Cyclopropyl-6-(cyclopropylmethoxy)-N-[3-(1-hydroxy-2-methylpropan-2-yl)-1,2-oxazol-5-yl]pyrazine-2-carboxamide] | 51.6 |
| CC(C)(CN=[N+]=[N-])c1cc(NC(=O)c2cnc(C3CC3)c(OCC3CC3)n2)on1 [Example 26, N-[3-(1-Azido-2-methylpropan-2-yl)-1,2-oxazol-5-yl]-5-cyclopropyl-6-(cyclopropylmethoxy)pyrazine-2-carboxamide] | 12.4 |

same assay, conditions: CHO cells expressing human CB2 receptors; read-out: cAMP assay human CB2 EC50

| SMILES | EC50 [nM] |
| --- | --- |
| CC(C)(Cc1nnc(-c2ccccc2)o1)NC(=O)c1cccc(-c2ccc(Cl)cc2)n1 [Example 2, 6-(4-Chlorophenyl)-N-[2-methyl-1-(5-phenyl-1,3,4-oxadiazol-2-yl)propan-2-yl]pyridine-2-carboxamide] | 165 |
| CC(C)(Cc1nc(-c2ccccc2)no1)NC(=O)c1cccc(OCC(F)(F)F)n1 [Example 5, N-[2-Methyl-1-(3-phenyl-1,2,4-oxadiazol-5-yl)propan-2-yl]-6-(2,2,2-trifluoroethoxy)pyridine-2-carboxamide] | 554 |
| CC(C)(Cc1nc(-c2ccccc2)no1)NC(=O)c1cccc(-c2cccc(Cl)c2)n1 [Example 8, 6-(3-Chlorophenyl)-N-[2-methyl-1-(3-phenyl-1,2,4-oxadiazol-5-yl)propan-2-yl]pyridine-2-carboxamide] | 194 |
| CC(C)(Cc1nc(-c2ccccc2)no1)NC(=O)c1cccc(N2CCCC2=O)n1 [Example 12, N-[2-Methyl-1-(3-phenyl-1,2,4-oxadiazol-5-yl)propan-2-yl]-6-(2-oxopyrrolidin-1-yl)pyridine-2-carboxamide] | 662 |
| CC(C)(Cc1nnc(-c2ccc(F)cc2)o1)NC(=O)c1ccc(N2CC(F)(F)C2)c(OCC2CC2)n1 [Example 27, 6-(Cyclopropylmethoxy)-5-(3,3-difluoroazetidin-1-yl)-N-[1-[5-(4-fluorophenyl)-1,3,4-oxadiazol-2-yl]-2-methylpropan-2-yl]pyridine-2-carboxamide] | 2890 |
| CC(C)(Cc1nnc(-c2ccc(F)cc2)o1)NC(=O)c1ccc(C2CCCC2)c(OCC2CC2)n1 [Example 28, 5-Cyclopentyl-6-(cyclopropylmethoxy)-N-[1-[5-(4-fluorophenyl)-1,3,4-oxadiazol-2-yl]-2-methylpropan-2-yl]pyridine-2-carboxamide] | 2760 |
| COCCOCC(C)(C)c1cc(NC(=O)c2ccc(C3CCCC3)c(OCC3CC3)n2)on1 [Example 29, 5-Cyclopentyl-6-(cyclopropylmethoxy)-N-[3-[1-(2-methoxyethoxy)-2-methylpropan-2-yl]-1,2-oxazol-5-yl]pyridine-2-carboxamide] | 175 |
| CCOCCOCC(C)(C)c1cc(NC(=O)c2ccc(C3CCCC3)c(OCC3CC3)n2)on1 [Example 30, 5-Cyclopentyl-6-(cyclopropylmethoxy)-N-[3-[1-(2-ethoxyethoxy)-2-methylpropan-2-yl]-1,2-oxazol-5-yl]pyridine-2-carboxamide] | 176 |
